Measurements published in US20130184302A1, “METHODS FOR TREATING IRRITABLE BOWEL SYNDROME (IBS) AND INFECTIONS” (priority 2011, published 2013).

Tests used:
Type in all cases: in vivo, human
[1] = tested on: patients with diarrhea-predominant IBS; assay: IBS-QOL questionnaire, rifaximin 550 mg BID vs placebo in d-IBS
Description: Both groups received placebo for an additional 14 days after the initial 2-week treatment. Quality of life was assessed with the 34-item IBS-QOL questionnaire at baseline and 4 weeks after initiating treatment. Each item was scored on a 5-point scale (1=not at all; 2=slightly; 3=moderately; 4=quite a bit; and 5=extremely or a great deal). Results for composite and subscale scores were converted to a scale ranging from 0 to 100, with higher scores indicating better QOL.
Following a 2-week initial treatment period, both groups of patients received placebo for an additional 14 days. Quality of life was assessed via the 34-item IBS-QOL questionnaire at baseline and 4 weeks after initiating treatment. Each item was scored on a 5-point scale (1=not at all; 2=slightly; 3=moderately; 4=quite a bit; 5=extremely or a great deal); results for composite and subscale scores were converted to a scale ranging from 0 to 100, with higher scores indicating better QOL.

[2] = tested on: patients with diarrhea-predominant IBS; assay: Tolerability, adverse events, rifaximin 550 mg BID study; conditions: rifaximin 550 mg BID 14 days
[3] = tested on: subjects with IBS; assay: Analysis of two studies after 3 months: global IBS symptoms, abdominal pain, bloating responders; conditions: for Responders: Abdominal pain reduction of 1 point in median: at least 2 weeks during PEP
From the text: A measure of efficacy is based on subjects' answers to the Weekly Subject Global Assessment (SGA) questions over the study duration in relation to their IBS symptoms.
The study endpoints of the studies were Global IBS symptoms and AUC in abdominal pain during the study.
The primary and secondary endpoints evaluated in this study were the effect of treatment on the percentage of subjects who reported adequate relief of Global IBS symptoms, reduction in abdominal pain and the adequate relief of IBS symptom of bloating.

Structure (SMILES): CO[C@H]1/C=C/O[C@@]2(C)Oc3c(C)c(O)c4c(O)c(c5c(nc6cc(C)ccn65)c4c3C2=O)NC(=O)/C(C)=C\C=C\[C@H](C)[C@H](O)[C@@H](C)[C@@H](O)[C@@H](C)[C@H](OC(C)=O)[C@@H]1C [Rifaximin, (2S,16Z,18E,20S,21S,22R, 23R,24R,25S,26S,27S,28E)-5,6,21,23,25 Pentahydroxy-27-methoxy-2,4,11,16,20,22,24,26-octamethyl-2,7-(epoxypentadeca-(1,11,13)trienimino) benzofuro (4,5-e) pyrido(1,2,-a) benzimidazole-1,15(2H)-dione,25-acetate]
- Mean Change From Baseline in IBS-QOL Scores at Week 4: Body image ([1]; Rifaximin 1100 mg/d (n = 191)): 20.1
- Mean Change From Baseline in IBS-QOL Scores at Week 4: Dysphoria ([1]; Rifaximin 1100 mg/d (n = 191)): 24.8
- Mean Change From Baseline in IBS-QOL Scores at Week 4: Food avoidance ([1]; Rifaximin 1100 mg/d (n = 191)): 25.0
- Mean Change From Baseline in IBS-QOL Scores at Week 4: Health worry ([1]; Rifaximin 1100 mg/d (n = 191)): 16.0
- Mean Change From Baseline in IBS-QOL Scores at Week 4: Interference with activity ([1]; Rifaximin 1100 mg/d (n = 191)): 22.2
- Mean Change From Baseline in IBS-QOL Scores at Week 4: Relationship ([1]; Rifaximin 1100 mg/d (n = 191)): 14.9
- Mean Change From Baseline in IBS-QOL Scores at Week 4: Sexual ([1]; Rifaximin 1100 mg/d (n = 191)): 13.6
- Mean Change From Baseline in IBS-QOL Scores at Week 4: Social reaction ([1]; Rifaximin 1100 mg/d (n = 191)): 17.3
- Mean Change From Baseline in IBS-QOL Scores at Week 4: Overall score ([1]; Rifaximin 1100 mg/d (n = 191), scale 0 to 100): 20.4
- Improvement with rifaximin over placebo, IBS-QOL: Body image ([1]; Week 4, 1100 mg/d): 37.4%
- Improvement with rifaximin over placebo, IBS-QOL: Dysphoria ([1]; Week 4, 1100 mg/d): 25.3%
- Improvement with rifaximin over placebo, IBS-QOL: Food avoidance ([1]; Week 4, 1100 mg/d): 22.1%
- Improvement with rifaximin over placebo, IBS-QOL: Health worry ([1]; Week 4, 1100 mg/d): 30.6%
- Improvement with rifaximin over placebo, IBS-QOL: Interference with activity ([1]; Week 4, 1100 mg/d): 22.2%
- Improvement with rifaximin over placebo, IBS-QOL: Overall score ([1]; Week 4, 1100 mg/d): 28.7%
- Improvement with rifaximin over placebo, IBS-QOL: Relationship ([1]; Week 4, 1100 mg/d): 39.5%
- Improvement with rifaximin over placebo, IBS-QOL: Sexual ([1]; Week 4, 1100 mg/d): 24.9%
- Improvement with rifaximin over placebo, IBS-QOL: Social reaction ([1]; Week 4, 1100 mg/d): 31.6%
- Tolerability, incidence of adverse events compared with placebo [2]: well tolerated
- IBS symptom of Bloating: at least 2 out of 4 weeks adequate relief during weeks 3 through 6 ([3]; Combined): 30% vs 40%
- Responders: Abdominal Pain reduction of 2 point in mean ([3]; Combined): 18% vs 25%
- Responders: Abdominal Pain reduction of 2 point in median ([3]; Combined): 32% vs 39%
- Responders: Abdominal Pain reduction of 3 point in mean ([3]; Combined): 6% vs 7%
- Responders: Abdominal Pain reduction of 3 point in median ([3]; Combined): 18% vs 21%
- Responders: Abdominal pain reduction of 1 point in mean ([3]; Combined): 42% vs 52%
- Responders: Daily abdominal pain <2 ([3]; Combined): 31% vs 39%
- Responders: Overall reduction of mean weekly abdominal pain by > = 25% ([3]; Combined): 47% vs 57%
- Responders: Overall reduction of mean weekly abdominal pain by > = 50% ([3]; Combined): 28% vs 35%
- Responders: Overall reduction of mean weekly abdominal pain by > = 75% ([3]; Combined): 11% vs 14%
- Responders: Overall reduction of median weekly abdominal pain by > = 25% ([3]; Combined): 52% vs 62%
- Responders: Overall reduction of median weekly abdominal pain by > = 50% ([3]; Combined): 34% vs 44%
- Responders: Overall reduction of median weekly abdominal pain by > = 75% ([3]; Combined): 18% vs 21%
- Responders: Abdominal pain reduction of 1 point in median ([3]; Combined): 53% vs 63%
- IBS symptom of Bloating: at least 2 out of 4 weeks adequate relief during weeks 3 through 6 ([3]; Study 2): 32% vs 41%
- Responders: Abdominal Pain reduction of 2 point in mean ([3]; Study 2): 18% vs 25%
- Responders: Abdominal Pain reduction of 2 point in median ([3]; Study 2): 30% vs 41%
- Responders: Abdominal Pain reduction of 3 point in mean ([3]; Study 2): 6% vs 7%
- Responders: Abdominal Pain reduction of 3 point in median ([3]; Study 2): 17% vs 21%
- Responders: Abdominal pain reduction of 1 point in mean ([3]; Study 2): 43% vs 52%
- Responders: Daily abdominal pain <2 ([3]; Study 2): 31% vs 39%
- Responders: Overall reduction of mean weekly abdominal pain by > = 25% ([3]; Study 2): 47% vs 58%
- Responders: Overall reduction of mean weekly abdominal pain by > = 50% ([3]; Study 2): 29% vs 35%
- Responders: Overall reduction of mean weekly abdominal pain by > = 75% ([3]; Study 2): 11% vs 14%
- Responders: Overall reduction of median weekly abdominal pain by > = 25% ([3]; Study 2): 52% vs 62%
- Responders: Overall reduction of median weekly abdominal pain by > = 50% ([3]; Study 2): 35% vs 44%
- Responders: Overall reduction of median weekly abdominal pain by > = 75% ([3]; Study 2): 17% vs 20%
- Responders: Abdominal pain reduction of 1 point in median ([3]; Study 2): 53% vs 62%
- IBS symptom of Bloating: at least 2 out of 4 weeks adequate relief during weeks 3 through 6 ([3]; Study [1]): 29% vs 40%
- Responders: Abdominal Pain reduction of 2 point in mean ([3]; Study [1]): 18% vs 26%
